Data from PubChem BioAssay (NCI).
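96-well plates; 48 h exposure; 5 concentrations. Endpoints by linear interpolation between flanking doses. Not reached: highest tested concentration assigned. GI50 = concentration required for 50% inhibition of growth. TGI marks complete inhibition of growth.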

Columns and labels:
Test in all cases: growth of human tumour cells (NCI), 48 h
[1] = tested on: NCI-H226 lung
[2] = tested on: NCI-H23 lung
[3] = tested on: NCI-H460 lung
[4] = tested on: NCI-H522 lung
[5] = tested on: NCI/ADR-RES ovarian
[6] = tested on: OVCAR-3 ovarian
[7] = tested on: OVCAR-4 ovarian
[8] = tested on: OVCAR-5 ovarian
[9] = tested on: OVCAR-8 ovarian
[10] = tested on: PC-3 prostate
[11] = tested on: RPMI-8226 leukemia
[12] = tested on: RXF 393 renal
[13] = tested on: SF-268 CNS
[14] = tested on: SF-295 CNS
[15] = tested on: SF-539 CNS
[16] = tested on: SK-MEL-2 melanoma
[17] = tested on: SK-MEL-28 melanoma
[18] = tested on: SK-MEL-5 melanoma
[19] = tested on: SK-OV-3 ovarian
[20] = tested on: SN12C renal
[21] = tested on: SNB-19 CNS
[22] = tested on: SNB-75 CNS
[23] = tested on: SW-620 colon
[24] = tested on: T-47D breast
[25] = tested on: TK-10 renal
[26] = tested on: U251 CNS
[27] = tested on: UACC-257 melanoma
[28] = tested on: UACC-62 melanoma
[29] = tested on: UO-31 renal

`COC1=C[C@]23CCC(=O)N2CCc2cc4c(cc2[C@@H]3[C@@H]1OC(=O)[C@H](C)O)OCO4` gave a GI50 [1] of 3.52 µM, a TGI [1] of 29.8 µM and a GI50 [2] of 7.5 µM. The TGI [2] was 24.5 µM, the GI50 [3] was 1.65 µM and the TGI [3] was 13.1 µM. The GI50 [4] was 3.89 µM, the TGI [4] was 17.7 µM and the GI50 [5] was 13.7 µM. The TGI [5] was > 52 µM, the GI50 [6] was 4.11 µM and the TGI [6] was 42.2 µM. The GI50 [7] was 8.79 µM, the TGI [7] was > 52 µM and the GI50 [8] was 11.4 µM. The TGI [8] was > 52 µM, the GI50 [9] was 11.7 µM and the TGI [9] was 48.9 µM. For the same compound, the GI50 [10] was 6.71 µM, the TGI [10] was 44.6 µM and the GI50 [11] was 3.23 µM. For the same compound, the TGI [11] was 21 µM, the GI50 [12] was 1.63 µM and the TGI [12] was 5.85 µM. For the same compound, the GI50 [13] was 15.3 µM, the TGI [13] was > 52 µM and the GI50 [14] was 9.24 µM. It also gave a TGI [14] of 36.3 µM, a GI50 [15] of 2.99 µM and a TGI [15] of 14.8 µM. The GI50 [16] was 12.6 µM, the TGI [16] was > 52 µM and the GI50 [17] was 8.47 µM. The TGI [17] was 31.5 µM, the GI50 [18] was 3.7 µM and the TGI [18] was 12.4 µM. For the same compound, the GI50 [19] was 7.82 µM, the TGI [19] was 51.5 µM and the GI50 [20] was 14.5 µM. The TGI [20] was > 52 µM, the GI50 [21] was 4.85 µM and the TGI [21] was 31.1 µM. For the same compound, the GI50 [22] was 6.59 µM, the TGI [22] was 30.3 µM and the GI50 [23] was 8.06 µM. The TGI [23] was > 52 µM, the GI50 [24] was 6.98 µM and the TGI [24] was 47.1 µM. The GI50 [25] was 15.8 µM, the TGI [25] was > 52 µM and the GI50 [26] was 6.76 µM. For the same compound, the TGI [26] was 36.4 µM, the GI50 [27] was 10.5 µM and the TGI [27] was 42.1 µM. For the same compound, the GI50 [28] was 9.25 µM, the TGI [28] was > 52 µM and the GI50 [29] was 5.28 µM. For the same compound, the TGI [29] was 39.3 µM.
